Species: Rattus norvegicus
Type: toxicity, organism-based, Sprague-Dawley
Settings: in vivo, po, route oral GAVAGE, vehicle 100 % SALINE; for ABSOLUTE EOSINOPHIL / ABSOLUTE LYMPHOCYTE / ABSOLUTE MONOCYTE / ABSOLUTE SEGMENTED NEUTROPHIL / BASOPHIL / EOSINOPHIL / ERYTHROCYTE COUNT / HEMATOCRIT / HEMOGLOBIN / LEUKOCYTE COUNT / LYMPHOCYTE / MEAN CORPUSCULAR HEMOGLOBIN / MEAN CORPUSCULAR HEMOGLOBIN CONCENTRATION / MONOCYTE / NEUTROPHIL / NUCLEATED RED BLOOD CELLS / PLATELET COUNT: tissue Blood; for ALANINE AMINOTRANSFERASE / ALBUMIN / ALKALINE PHOSPHATASE / ASPARTATE AMINOTRANSFERASE / BLOOD UREA NITROGEN / CARBON DIOXIDE / CHLORIDE / CHOLESTEROL / CREATINE PHOSPHOKINASE / CREATININE / GLUCOSE / LACTATE DEHYDROGENASE / LIPASE / PHOSPHORUS / POTASSIUM / SODIUM / TOTAL BILIRUBIN / TOTAL PROTEIN / URIC ACID: tissue Plasma
[1] = 0 mg/kg, 6 h, vehicle control, dose level Control, time 0.25 day
[2] = 0 mg/kg, 24 h, vehicle control, dose level Control, time 1 day
[3] = 700 mg/kg, 6 h, dose level Low, time 0.25 day

Description: DrugMatrix - Regimen: Single

CN(C)C=O [DIMETHYLFORMAMIDE]
ABSOLUTE EOSINOPHIL [1]: 24 CELLS/uL | ABSOLUTE LYMPHOCYTE [1]: 11958.17 CELLS/uL | ABSOLUTE MONOCYTE [1]: 398.83 CELLS/uL | ABSOLUTE SEGMENTED NEUTROPHIL [1]: 1252.33 CELLS/uL | BASOPHIL [1]: 0% | EOSINOPHIL [1]: 0.17% | ERYTHROCYTE COUNT [1]: 5.37 x10E6/uL | HEMATOCRIT [1]: 35.6% | HEMOGLOBIN [1]: 13.05 G/DL | LEUKOCYTE COUNT [1]: 13.63 x10E3/uL | LYMPHOCYTE [1]: 87.67% | MEAN CORPUSCULAR HEMOGLOBIN [1]: 24.28 pg | MEAN CORPUSCULAR HEMOGLOBIN CONCENTRATION [1]: 36.67 G/DL | MONOCYTE [1]: 2.83% | NEUTROPHIL [1]: 9.33% | NUCLEATED RED BLOOD CELLS [1]: 0 /100WBC | PLATELET COUNT [1]: 947.83 x10E3/uL | ALANINE AMINOTRANSFERASE [1]: 51 u/L | ALBUMIN [1]: 4.02 G/DL | ALKALINE PHOSPHATASE [1]: 312.33 u/L | ASPARTATE AMINOTRANSFERASE [1]: 98.17 u/L | BLOOD UREA NITROGEN [1]: 9.5 mg/dL | CARBON DIOXIDE [1]: 18.83 mmol/L | CHLORIDE [1]: 103.5 MEQ/L | CHOLESTEROL [1]: 69.5 mg/dL | CREATINE PHOSPHOKINASE [1]: 580.17 u/L | CREATININE [1]: 0.53 mg/dL | GLUCOSE [1]: 175.67 mg/dL | LACTATE DEHYDROGENASE [1]: 295.5 u/L | LIPASE [1]: 8.17 u/L | PHOSPHORUS [1]: 14.12 mg/dL | POTASSIUM [1]: 5.77 MEQ/L | SODIUM [1]: 144.13 MEQ/L | TOTAL BILIRUBIN [1]: 0.12 mg/dL | TOTAL PROTEIN [1]: 4.87 G/DL | URIC ACID [1]: 2.25 mg/dL | ABSOLUTE EOSINOPHIL [2]: 0 CELLS/uL | ABSOLUTE LYMPHOCYTE [2]: 12232.83 CELLS/uL | ABSOLUTE SEGMENTED NEUTROPHIL [2]: 780.17 CELLS/uL | BASOPHIL [2]: 0% | EOSINOPHIL [2]: 0% | ERYTHROCYTE COUNT [2]: 5.18 x10E6/uL | HEMATOCRIT [2]: 33.48% | HEMOGLOBIN [2]: 13.22 G/DL | LEUKOCYTE COUNT [2]: 13.03 x10E3/uL | LYMPHOCYTE [2]: 93.33% | MEAN CORPUSCULAR HEMOGLOBIN [2]: 25.57 pg | MEAN CORPUSCULAR HEMOGLOBIN CONCENTRATION [2]: 39.52 G/DL | MONOCYTE [2]: 0.17% | NEUTROPHIL [2]: 6.5% | NUCLEATED RED BLOOD CELLS [2]: 0 /100WBC | PLATELET COUNT [2]: 931.5 x10E3/uL | ALANINE AMINOTRANSFERASE [2]: 60.83 u/L | ALBUMIN [2]: 4.18 G/DL | ALKALINE PHOSPHATASE [2]: 283.33 u/L | ASPARTATE AMINOTRANSFERASE [2]: 80.5 u/L | BLOOD UREA NITROGEN [2]: 11.83 mg/dL | CARBON DIOXIDE [2]: 35.33 mmol/L | CHLORIDE [2]: 98.5 MEQ/L | CHOLESTEROL [2]: 80 mg/dL | CREATINE PHOSPHOKINASE [2]: 181.83 u/L | CREATININE [2]: 0.2 mg/dL | GLUCOSE [2]: 142.67 mg/dL | LACTATE DEHYDROGENASE [2]: 65.5 u/L | LIPASE [2]: 9.83 u/L | PHOSPHORUS [2]: 9.82 mg/dL | POTASSIUM [2]: 5.69 MEQ/L | SODIUM [2]: 143.35 MEQ/L | TOTAL BILIRUBIN [2]: 0.15 mg/dL | TOTAL PROTEIN [2]: 6.2 G/DL | URIC ACID [2]: 0.42 mg/dL | ABSOLUTE EOSINOPHIL [3]: 9.5 CELLS/uL | ABSOLUTE LYMPHOCYTE [3]: 11164.33 CELLS/uL | ABSOLUTE MONOCYTE [3]: 139.17 CELLS/uL | ABSOLUTE SEGMENTED NEUTROPHIL [3]: 1270.33 CELLS/uL | BASOPHIL [3]: 0% | EOSINOPHIL [3]: 0.17% | ERYTHROCYTE COUNT [3]: 5.55 x10E6/uL | HEMATOCRIT [3]: 36.67% | HEMOGLOBIN [3]: 12.92 G/DL | LEUKOCYTE COUNT [3]: 12.58 x10E3/uL | LYMPHOCYTE [3]: 88.83% | MEAN CORPUSCULAR HEMOGLOBIN [3]: 23.45 pg | MEAN CORPUSCULAR HEMOGLOBIN CONCENTRATION [3]: 35.43 G/DL | MONOCYTE [3]: 1% | NEUTROPHIL [3]: 10% | NUCLEATED RED BLOOD CELLS [3]: 0 /100WBC | PLATELET COUNT [3]: 1098.83 x10E3/uL | ALANINE AMINOTRANSFERASE [3]: 66.17 u/L | ALBUMIN [3]: 4.17 G/DL | ALKALINE PHOSPHATASE [3]: 259.5 u/L | ASPARTATE AMINOTRANSFERASE [3]: 125.5 u/L | BLOOD UREA NITROGEN [3]: 9.33 mg/dL | CARBON DIOXIDE [3]: 17.83 mmol/L | CHLORIDE [3]: 103 MEQ/L | CHOLESTEROL [3]: 67.67 mg/dL | CREATINE PHOSPHOKINASE [3]: 882.33 u/L | CREATININE [3]: 0.3 mg/dL | GLUCOSE [3]: 174.5 mg/dL | LACTATE DEHYDROGENASE [3]: 297.17 u/L | LIPASE [3]: 9.83 u/L | PHOSPHORUS [3]: 15.98 mg/dL | POTASSIUM [3]: 6.92 MEQ/L | SODIUM [3]: 144.05 MEQ/L | TOTAL BILIRUBIN [3]: 0.13 mg/dL | TOTAL PROTEIN [3]: 5.7 G/DL | URIC ACID [3]: 3.3 mg/dL
